Test results as given in patent US5015631A, “Repairing agent for cells and tissues” (MECT Corporation, priority 1987, dated 1991).
Read-outs that look alike come from different tables or passages of the source.

Columns and labels:
[1] = tested on: nasal mucous membranes of rats; assay: Acute disappearance of cilia from nasal mucous membranes of rats and degeneration of the epithelium induced by exposure to sulfur dioxide; format: in vivo, Male Wistar rats; settings: for Disappearance of cilia / Disappearance of epithelium / Monolayer squamous metaplasia of epithelium: per animal; on Disappearance of epithelium: key: -: Unchanged; +: Slight; ++: Moderate change; +++: Severe; on Monolayer squamous metaplasia of epithelium: key: -: Unchanged; +: Slight; ++: Moderate change; +++: Severe; on disappearance of cilia: key: -: Unchanged; +: Slight; ++: Moderate change; +++: Severe
Protocol: The effects of test samples on acute disappearance of cilia from nasal mucous membranes of rats and the degeneration of the epithelium induced by exposure to sulfur dioxide:
Male Wistar rats weighing 180 to 200 g were used.
(§1) Sodium N-acetylneuraminate (a product of MECT Corporation) was used.
The rats were exposed to 400 ppm of sulfur dioxide for 4 hours. 30 minutes after the exposure, the rats were caused to inhale the test sample or physiological saline as follows:
Group I: inhalation of 300 mg/m^3 of sodium N-acetylneuraminate for 1 hour.
Group II: inhalation of 100 mg/m^3 of sodium N-acetylneuraminate for 1 hour.
Group III: inhalation of 20 ml/m^3 of the physiological saline for 1 hour.
Each group comprised 5 rats.
24 hours after the inhalation of the materials or physiological saline, the rats were killed and their intranarial changes were examined by a microscopic observation and the results were compared with one another.

[2] = tested on: nasal mucous membrane of rabbits; assay: Subacute disappearance of cilia from nasal mucous membrane of rabbits and degeneration of the epithelium induced by exposure to sulfur dioxide; format: in vivo, Male New Zealand White rabbits; on disappearance of cilia: key: -: Unchanged; +: Slight; ++: Moderate change; +++: Severe
Protocol: Effects on subacute disappearance of cilia from nasal mucous membrane of rabbits and degeneration of the epithelium thereof induced by exposure to sulfur dioxide:
Male New Zealand White rabbits weighing 1.8 to 2.2 kg were used.
as §1
The rabbits were exposed to sulfur dioxide by means of a sulfur dioxide-exposing apparatus for 2 hours a day continuously for 5 weeks. The sulfur dioxide concentrations were 70 to 150 ppm in the first and second weeks and 200 to 300 ppm in the third to fifth weeks. After the third week, the inhalation of the material or physiological saline by means of an ultrasonic nebulizer (TUR-3200: a product of Nippon Koden Co., Ltd.) was made immediately before the exposure to sulfur dioxide.
Group I: inhalation of 25 mg/kg of sodium N-acetylneuraminate for 2 minutes.
Group II: inhalation of 1 ml of physiological saline for 2 minutes.
Each group comprised six rabbits.
Five weeks after completion of the exposure to sulfur dioxide, the rabbits were killed by venesection and the intranarial changes of them were examined by a microscopic observation and the results were compared with one another.

[3] = tested on: mice; assay: Acute toxicity test in mice; format: in vivo; settings: male, 20160 min
Protocol: (§2) The acute toxicity tests of sodium N-acetylneuraminate to mice, rats and guinea pigs given by oral administration or subcutaneous injection, intraperitoneal injection, intravenous injection or inhalation, were conducted as follows:
(§3) 20 w/v % (solution in distilled water)

[4] = tested on: rats; assay: Acute toxicity test in rats; format: in vivo
Protocol: as §2, §3
In the inhalation, the subjects were exposed to a spray of the compound o

[5] = Stability versus pH; format: physicochemical
[6] = tested on: mice; assay: Simple acute toxicity test by intravenous injection in mice; format: in vivo, Male ddy mice; settings: 3 mice
Protocol: Simple acute toxicity test:
Simple acute toxicity tests of the materials were conducted by intraveous injections for the mice as follows:
Lithium, potassium, barium and magnesium N-acetylneuraminates (products of MECT Corporation) were used.
Weight of the animal in the initial stage of the test: 17.7 to 21.1 g
Number of mice for each level: 3
(3) Room temperature: 23±1° C., humidity: 55±7%
(4) Route of administration: intravenous injection
The material was dissolved in the physiological saline. The concentration of the dose solution was adjusted so that 0.2 ml of the dose solution was administered per 20 g of the body weight of the mice. The solution was given to a tail of each mouse by the intravenous injection. The dose was 500, 1000 or 2000 mg/kg.
The general symptoms and death were observed from immediately after the administration to seven days after the administration.

[7] = Group I: inhalation 300 mg/m^3 for 1 hour
[8] = Group II: inhalation 100 mg/m^3 for 1 hour
[9] = Group I: inhalation 25 mg/kg for 2 minutes, per animal

CC(=O)N[C@H]1[C@H]([C@H](O)[C@H](O)CO)OC(O)(C(=O)[O-])C[C@@H]1O.[Na+] (stereo partly drawn)
Disappearance of cilia [1, 7]: ++ and +
Disappearance of epithelium [1, 7]: -
Monolayer squamous metaplasia of epithelium [1, 7]: -
Disappearance of cilia [1, 8]: + and - and ++
Disappearance of epithelium [1, 8]: -
Monolayer squamous metaplasia of epithelium [1, 8]: -
Intranarial changes ([1]; Groups I and II (300 and 100 mg/m^3), compared with Group III (physiological saline)): only the disappearance of cilia was observed and the degree of the disappearance was lower than that of Group III
Inhibition of acute disappearance of cilia, monolayer squamous metaplasia and disappearance of epithelium / degeneration of nasal mucous membranes ([1]; sulfur dioxide exposure, rats): remarkable effect of inhibiting
Squamous metaplasia of epithelium, comparison of groups ([2]; Group I (25 mg/kg) versus Group II (physiological saline)): more serious in Group II than in Group I
Disappearance of cilia [2, 9]: - and + and ++
Squamous metaplasia of epithelium [2, 9]: - and + and ++
Inhibition of subacute disappearance of cilia and squamous metaplasia of epithelium / repair of cells and tissues of nasal mucous membranes ([2]; sulfur dioxide exposure, 25 mg/kg inhalation): remarkable effect of inhibiting
LD50 ([3]; intraperitoneal): > 5,000 mg/kg
LD50 ([3]; intravenous): > 5,000 mg/kg
LD50 ([3]; oral): > 5,000 mg/kg
LD50 ([3]; subcutaneous): > 5,000 mg/kg
LD50 [4]: > 5,000 mg/kg
LD50 ([4]; rats, female, inhalation, spray for one hour): > 4,000 mg/m^3
LD50 ([4]; rats, male, inhalation, spray for one hour): > 4,000 mg/m^3
LD50 ([4]; rats, male, intraperitoneal, 20160 min): > 5,000 mg/kg
LD50 ([4]; rats, male, intravenous, 20160 min): > 5,000 mg/kg
LD50 ([4]; rats, male, oral, 20160 min): > 5,000 mg/kg
pH range of greatest stability [5]: 5.5 to 6.0

CC(=O)N[C@H]1[C@H]([C@H](O)[C@H](O)CO)OC(O)(C(=O)O)C[C@@H]1O (stereo partly drawn) [Barium N-acetylneuraminate]
Final death rate ([6]; 500 mg/kg i.v.): 3/3
Number of death with the elapse of time ([6]; 500 mg/kg i.v., 1 hr): 3
Number of death with the elapse of time ([6]; 500 mg/kg i.v., 3 hrs): 0
Number of death with the elapse of time ([6]; 500 mg/kg i.v., 6 hrs): 0
Number of death with the elapse of time ([6]; 500 mg/kg i.v., 24 hrs): 0
Number of death with the elapse of time ([6]; 500 mg/kg i.v., 2 days): 0
Number of death with the elapse of time ([6]; 500 mg/kg i.v., 3 days): 0
Number of death with the elapse of time ([6]; 500 mg/kg i.v., 4 days): 0
Number of death with the elapse of time ([6]; 500 mg/kg i.v., 5 days): 0
Number of death with the elapse of time ([6]; 500 mg/kg i.v., 6 days): 0
Number of death with the elapse of time ([6]; 500 mg/kg i.v., 7 days): 0
Number of death with the elapse of time ([6]; 1000 mg/kg i.v., 1 hr): 3
Number of death with the elapse of time ([6]; 1000 mg/kg i.v., 3 hrs): 0
Number of death with the elapse of time ([6]; 1000 mg/kg i.v., 6 hrs): 0
Number of death with the elapse of time ([6]; 1000 mg/kg i.v., 24 hrs): 0
Number of death with the elapse of time ([6]; 1000 mg/kg i.v., 2 days): 0
Number of death with the elapse of time ([6]; 1000 mg/kg i.v., 3 days): 0
Number of death with the elapse of time ([6]; 1000 mg/kg i.v., 4 days): 0
Number of death with the elapse of time ([6]; 1000 mg/kg i.v., 5 days): 0
Number of death with the elapse of time ([6]; 1000 mg/kg i.v., 6 days): 0
Number of death with the elapse of time ([6]; 1000 mg/kg i.v., 7 days): 0
Number of death with the elapse of time ([6]; 2000 mg/kg i.v., 1 hr): 3
Number of death with the elapse of time ([6]; 2000 mg/kg i.v., 3 hrs): 0
Number of death with the elapse of time ([6]; 2000 mg/kg i.v., 6 hrs): 0
Number of death with the elapse of time ([6]; 2000 mg/kg i.v., 24 hrs): 0
Number of death with the elapse of time ([6]; 2000 mg/kg i.v., 2 days): 0
Number of death with the elapse of time ([6]; 2000 mg/kg i.v., 3 days): 0
Number of death with the elapse of time ([6]; 2000 mg/kg i.v., 4 days): 0
Number of death with the elapse of time ([6]; 2000 mg/kg i.v., 5 days): 0
Number of death with the elapse of time ([6]; 2000 mg/kg i.v., 6 days): 0
Number of death with the elapse of time ([6]; 2000 mg/kg i.v., 7 days): 0
